Reference: ChEMBL document CHEMBL1201862, “PubChem BioAssay data set” (2004)
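A five-concentration, 48-hour dose response in 96-well plates underlies each endpoint, interpolated linearly between surrounding concentrations. Here, GI50 denotes the concentration required for 50% inhibition of growth.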 Activity calls are given as the source filed them. Rule as the data show it: active = GI50 up to about 1.1 µM and inactive = higher.

Experiments:
Test in all cases: growth of human tumour cells (NCI), 48 h
DLD-1 = test system: DLD-1
OVCAR-4 = test system: OVCAR-4
SNB-78 = test system: SNB-78
RXF 393 = test system: RXF 393
HT-29 = test system: HT-29
LOX IMVI = test system: LOX IMVI
COLO 205 = test system: COLO 205
786-0 = test system: 786-0
SK-MEL-5 = test system: SK-MEL-5
A549 = test system: A549
HL-60 = test system: HL-60
U-251 = test system: U-251
SK-MEL-28 = test system: SK-MEL-28
KM-20L2 = test system: KM-20L2
DMS-114 = test system: DMS-114
SF-539 = test system: SF-539
M19-MEL = test system: M19-MEL
NCI-H226 = test system: NCI-H226
UACC-62 = test system: UACC-62
OVCAR-8 = test system: OVCAR-8
NCI-H522 = test system: NCI-H522
CCRF-CEM = test system: CCRF-CEM
K562 = test system: K562
SW-620 = test system: SW-620
SNB-75 = test system: SNB-75
TK-10 = test system: TK-10
SK-OV-3 = test system: SK-OV-3
MOLT-4 = test system: MOLT-4
HOP-62 = test system: HOP-62
DMS-273 = test system: DMS-273
NCI-H460 = test system: NCI-H460
OVCAR-3 = test system: OVCAR-3
XF498 = test system: XF498
RPMI-8226 = test system: RPMI-8226
HCT-116 = test system: HCT-116
SN12C = test system: SN12C
KM12 = test system: KM12
IGROV-1 = test system: IGROV-1
LXFL 529 = test system: LXFL 529
SNB-19 = test system: SNB-19
SF-295 = test system: SF-295
HCC 2998 = test system: HCC 2998
SF-268 = test system: SF-268
HOP-18 = test system: HOP-18
NCI-H23 = test system: NCI-H23
M14 = test system: M14
ACHN = test system: ACHN
UACC-257 = test system: UACC-257
HOP-92 = test system: HOP-92
EKVX = test system: EKVX
UO-31 = test system: UO-31
Malme-3M = test system: Malme-3M

Measured: GI50

COP1(=O)CC2C(Cl)(Cl)C2(C)C1 (configuration not stated)
inactive: DLD-1 > 100 µM | OVCAR-4 > 100 µM | SNB-78 > 100 µM | RXF 393 > 100 µM | HT-29 > 100 µM | LOX IMVI > 100 µM | COLO 205 > 100 µM | 786-0 > 100 µM | SK-MEL-5 > 100 µM | A549 > 100 µM | HL-60 > 100 µM | U-251 > 100 µM | SK-MEL-28 > 100 µM | KM-20L2 > 100 µM | DMS-114 > 100 µM | SF-539 > 100 µM | M19-MEL > 100 µM | NCI-H226 > 100 µM | UACC-62 > 100 µM | OVCAR-8 > 100 µM | NCI-H522 > 100 µM | CCRF-CEM > 100 µM | K562 > 100 µM | SW-620 > 100 µM | SNB-75 > 100 µM | TK-10 > 100 µM | SK-OV-3 > 100 µM | MOLT-4 > 100 µM | HOP-62 > 100 µM | DMS-273 > 100 µM | NCI-H460 > 100 µM | OVCAR-3 > 100 µM | XF498 > 100 µM | RPMI-8226 > 100 µM | HCT-116 > 100 µM | SN12C > 100 µM | KM12 > 100 µM | IGROV-1 > 100 µM | LXFL 529 > 100 µM | SNB-19 > 100 µM | SF-295 > 100 µM | HCC 2998 > 100 µM | SF-268 > 100 µM | HOP-18 > 100 µM | NCI-H23 > 100 µM | M14 > 100 µM

c1ccc(-c2nc3ccccc3nc2SCc2cccnc2)cc1
inactive: OVCAR-4 > 100 µM | SNB-78 > 100 µM | HT-29 > 100 µM | ACHN > 100 µM | COLO 205 > 100 µM | UACC-257 > 100 µM | HOP-92 > 100 µM | 786-0 > 100 µM | A549 > 100 µM | EKVX > 100 µM | HL-60 > 100 µM | U-251 > 100 µM | SK-MEL-28 > 100 µM | DMS-114 > 100 µM | NCI-H226 > 100 µM | OVCAR-8 > 100 µM | CCRF-CEM > 100 µM | K562 > 100 µM | UO-31 56.6 µM | SNB-75 > 100 µM | SK-OV-3 > 100 µM | MOLT-4 > 100 µM | DMS-273 > 100 µM | OVCAR-3 > 100 µM | XF498 > 100 µM | RPMI-8226 > 100 µM | HCT-116 > 100 µM | SN12C > 100 µM | LXFL 529 > 100 µM | SNB-19 > 100 µM | SF-295 > 100 µM | Malme-3M > 100 µM | SF-268 > 100 µM | HOP-18 14.4 µM | NCI-H23 > 100 µM | M14 > 100 µM
